Reference: patent US20260250250A1, “3-(SULPHONYL OR SULFONIMIDOYL)PROP-2-EN-1-YL]-2-OXO-1,2-DIHYDROPYRIDINE-3-CARBOXAMIDE DERIVATIVES” (Flinder Therapeutics B.V., priority 2022, published 2026)
pIC50: −log10 of the molar value.

What was measured:
[1] = tested on: bladder carcinoma RT4 cell line; assay: TNF-α-induced cytotoxicity assay (CellTiter-Glo viability); type: cell-based; conditions: Homo sapiens, RT-4, 72 h
Method in brief: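 RT4 bladder carcinoma cells, 1000 per well, stimulated with 1.25 ng/mL TNFα together with compound for 72 h at 37° C., 5% CO2. Viability read by CellTiter-Glo luminescence, proportional to cellular ATP, as a measure of HOIP-dependent cytotoxicity.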

[2] = biological target: T1, human E3 ubiquitin-protein ligase RNF31 (HOIP) (Homo sapiens, UniProt Q96EP0); assay: Cell-free HTRF-based HOIP inhibition assay; type: biochemical
T1 sequence (Q96EP0 695-1072 limits assumed): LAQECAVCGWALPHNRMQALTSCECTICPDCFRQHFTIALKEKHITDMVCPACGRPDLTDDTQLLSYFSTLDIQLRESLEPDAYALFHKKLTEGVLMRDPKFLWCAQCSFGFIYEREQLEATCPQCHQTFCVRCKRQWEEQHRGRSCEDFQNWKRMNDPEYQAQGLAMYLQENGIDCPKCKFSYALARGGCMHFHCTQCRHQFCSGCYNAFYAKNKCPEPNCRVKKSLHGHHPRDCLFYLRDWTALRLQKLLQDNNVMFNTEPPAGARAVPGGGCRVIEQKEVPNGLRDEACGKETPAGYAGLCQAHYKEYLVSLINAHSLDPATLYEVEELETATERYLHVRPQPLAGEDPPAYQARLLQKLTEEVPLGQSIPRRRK
Method in brief: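 HTRF read (ex 337 nm; em 665 and 620 nm) after a 2.5 h, 25° C. ubiquitination step started by adding E2 plus substrates. Before that, E. coli-expressed human HOIP fragment and E1 were incubated 1 h at 25° C. with compound at 100-0.005 μM, 1% DMSO final.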

[3] = tested on: NF-κB signaling pathway; assay: Cell-based dual luciferase NF-κB reporter assay (HEK293 cells, TNF stimulated); conditions: Homo sapiens, HEK293
Method in brief: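 HEK293 cells transfected with Firefly luciferase and NF-κB-response-element NanoLuc plasmids; compounds at 100–0.005 µM in 1% DMSO. Cells stimulated with 2.5 ng/mL TNF 30 min after compound addition. Firefly and NanoLuc activities read after 6 h by Nano-Glo dual-luciferase detection.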

COc1ccc(S(=N)(=O)/C=C/CNC(=O)c2cc3c([nH]c2=O)CCCC3)c(C)c1 (stereo not drawn) [Example 139, N-[(2E)-3-[imino(4-methoxy-2-methylphenyl)oxo-λ^6-sulfanyl]prop-2-en-1-yl]-2-oxo-1,2,5,6,7,8-hexahydroquinoline-3-carboxamide]
pIC50 [1]: ≥ 6.00
pIC50 [2]: ≥ 6.00
pIC50 [3]: ≥ 6.00

O=C(NC/C=C/S(=O)(=O)c1ccccc1)c1cc2c([nH]c1=O)CCN(C(=O)OCC1CC1)C2 [Example 69, cyclopropylmethyl 3-{[(2E)-3-(benzenesulfonyl)prop-2-en-1-yl]carbamoyl}-2-oxo-1,2,5,6,7,8-hexahydro-1,6-naphthyridine-6-carboxylate]
pIC50 [1]: ≥ 6.00
pIC50 [2]: ≥ 7.00
pIC50 [3]: ≥ 6.00

O=C(NC/C=C/S(=O)(=O)c1ccccc1)c1cc2c([nH]c1=O)CCN(C(=O)C1CC1c1ccccc1)C2 (stereo not drawn) [Example 125, N-[(2E)-3-(benzenesulfonyl)prop-2-en-1-yl]-2-oxo-6-(2-phenylcyclopropanecarbonyl)-1,2,5,6,7,8-hexahydro-1,6-naphthyridine-3-carboxamide]
pIC50 [1]: ≥ 5.00
pIC50 [2]: ≥ 6.00
pIC50 [3]: ≥ 5.00

O=C(NC/C=C/S(=O)(=O)c1ccccc1)c1cc2c([nH]c1=O)CCN(C(=O)OCCF)C2 [Example 76, 2-fluoroethyl 3-{[(2E)-3-(benzenesulfonyl)prop-2-en-1-yl]carbamoyl}-2-oxo-1,2,5,6,7,8-hexahydro-1,6-naphthyridine-6-carboxylate]
pIC50 [1]: ≥ 5.00
pIC50 [2]: ≥ 6.00
pIC50 [3]: ≥ 5.00

COc1c(C)cc(S(=N)(=O)/C=C/CNC(=O)c2cc3c([nH]c2=O)CCCC3)cc1C (stereo not drawn) [Example 63, N-[(2E)-3-[Imino(4-methoxy-3,5-dimethylphenyl)oxo-λ^6-sulfanyl]prop-2-en-1-yl]-2-oxo-1,2,5,6,7,8-hexahydroquinoline-3-carboxamide]
pIC50 [1]: ≥ 6.00
pIC50 [2]: ≥ 6.00
pIC50 [3]: ≥ 6.00

CC1(C)CC1COC(=O)N1CCc2[nH]c(=O)c(C(=O)NC/C=C/S(=O)(=O)c3ccc(Cl)cc3)cc2C1 (stereo not drawn) [Example 85, (2,2-dimethylcyclopropyl)methyl 3-{[(2E)-3-(4-chlorobenzenesulfonyl)prop-2-en-1-yl]carbamoyl}-2-oxo-1,2,5,6,7,8-hexahydro-1,6-naphthyridine-6-carboxylate]
pIC50 [1]: ≥ 6.00
pIC50 [2]: ≥ 7.00
pIC50 [3]: ≥ 6.00

COCCOC(=O)N1CCc2[nH]c(=O)c(C(=O)NC/C=C/S(=O)(=O)c3ccccc3)cc2C1 [Example 80, 2-Methoxyethyl 3-{[(2E)-3-(benzenesulfonyl)prop-2-en-1-yl]carbamoyl}-2-oxo-1,2,5,6,7,8-hexahydro-1,6-naphthyridine-6-carboxylate]
pIC50 [1]: ≥ 5.00
pIC50 [2]: ≥ 6.00
pIC50 [3]: ≥ 4.00

O=C(NC/C=C/S(=O)(=O)c1ccccc1)c1cc2c([nH]c1=O)CCCC2 [Example 7, N-[(2E)-3-(benzenesulfonyl)prop-2-en-1-yl]-2-oxo-1,2,5,6,7,8-hexahydroquinoline-3-carboxamide]
pIC50 [1]: ≥ 6.00
pIC50 [2]: ≥ 6.00
pIC50 [3]: ≥ 6.00

O=C(NC/C=C/S(=O)(=O)c1ccccc1)c1cc2c([nH]c1=O)CCCCC2 [Example 38, N-[(2E)-3-(benzenesulfonyl)prop-2-en-1-yl]-2-oxo-1H,2H,5H,6H,7H,8H,9H-cyclohepta[b]pyridine-3-carboxamide]
pIC50 [1]: ≥ 6.00
pIC50 [2]: ≥ 6.00
pIC50 [3]: ≥ 6.00

COc1ccc(S(=O)(=O)/C=C/CNC(=O)c2cc3c([nH]c2=O)CCN(C(=O)OC(C)(C)C)C3)cc1F [Example 26, tert-butyl 3-{[(2E)-3-(3-fluoro-4-methoxybenzenesulfonyl)prop-2-en-1-yl]carbamoyl}-2-oxo-1,2,5,6,7,8-hexahydro-1,6-naphthyridine-6-carboxylate]
pIC50 [1]: ≥ 5.00
pIC50 [2]: ≥ 7.00
pIC50 [3]: ≥ 6.00

O=C(NC/C=C/S(=O)(=O)c1ccc(Cl)cc1)c1cc2c([nH]c1=O)CCCCC2 [Example 36, N-[(2E)-3-(4-chlorobenzenesulfonyl)prop-2-en-1-yl]-2-oxo-1H,2H,5H,6H,7H,8H,9H-cyclohepta[b]pyridine-3-carboxamide]
pIC50 [1]: ≥ 5.00
pIC50 [2]: ≥ 6.00
pIC50 [3]: ≥ 4.00

O=C(NC/C=C/S(=O)(=O)c1ccc(F)cc1F)c1cc2c([nH]c1=O)CCCC2 [Example 31, N-[(2E)-3-(2,4-difluorobenzenesulfonyl)prop-2-en-1-yl]-2-oxo-1,2,5,6,7,8-hexahydroquinoline-3-carboxamide]
pIC50 [1]: ≥ 6.00
pIC50 [2]: ≥ 7.00
pIC50 [3]: ≥ 6.00

O=C(NCC=CS(=O)(=O)c1ccccc1)c1cc2c([nH]c1=O)CCN(C(=O)OC1CCOC1)C2 [Example 81, (3S)-Oxolan-3-vi 3-{[(2E)-3-(benzenesulfonyl)prop-2-en-1-yl]carbamoyl}-2-oxo-1,2,5,6,7,8-hexahydro-1,6-naphthyridine-6-carboxylate]
pIC50 [1]: ≥ 5.00
pIC50 [2]: ≥ 6.00
pIC50 [3]: ≥ 5.00

COc1ccc(S(=O)(=O)/C=C/CNC(=O)c2cc3c([nH]c2=O)CCCC3)cc1OC [Example 45, N-[(2E)-3-(3,4-dimethoxybenzenesulfonyl)prop-2-en-1-yl]-2-oxo-1,2,5,6,7,8-hexahydroquinoline-3-carboxamide]
pIC50 [1]: ≥ 5.00
pIC50 [2]: ≥ 6.00
pIC50 [3]: ≥ 6.00

N=S(=O)(/C=C/CNC(=O)c1cc2c([nH]c1=O)CCCC2)c1ccc(Oc2ccccc2)cc1 (stereo not drawn) [Example 140, N-[(2E)-3-[imino(oxo)(4-phenoxyphenyl)-λ^6-sulfanyl]prop-2-en-1-yl]-2-oxo-1,2,5,6,7,8-hexahydroquinoline-3-carboxamide]
pIC50 [1]: ≥ 6.00
pIC50 [2]: ≥ 6.00
pIC50 [3]: ≥ 6.00

N=S(=O)(/C=C/CNC(=O)c1cc2c([nH]c1=O)CCN(C(=O)OCC(F)F)C2)c1ccccc1 (stereo not drawn) [Example 182, 2,2-difluoroethyl 3-{[(2E)-3-[imino(oxo)phenyl-λ^6-sulfanyl]prop-2-en-1-yl]carbamoyl}-2-oxo-1,2,5,6,7,8-hexahydro-1,6-naphthyridine-6-carboxylate]
pIC50 [1]: ≥ 5.00
pIC50 [2]: ≥ 6.00
pIC50 [3]: ≥ 4.00

O=C(NC/C=C/S(=O)(=O)c1ccccc1)c1cc2cccnc2[nH]c1=O [Example 47, N-[(2E)-3-(benzenesulfonyl)prop-2-en-1-yl]-2-oxo-1,2-dihydro-1,8-naphthyridine-3-carboxamide]
pIC50 [1]: ≥ 5.00
pIC50 [2]: ≥ 6.00
pIC50 [3]: ≥ 5.00

O=C(NC/C=C/S(=O)(=O)c1ccc(F)cc1)c1cc2c([nH]c1=O)CCCC2 [Example 16, N-[(2E)-3-(4-fluorobenzenesulfonyl)prop-2-en-1-yl]-2-oxo-1,2,5,6,7,8-hexahydroquinoline-3-carboxamide]
pIC50 [1]: ≥ 6.00
pIC50 [2]: ≥ 7.00
pIC50 [3]: ≥ 6.00

COc1ccc(S(=N)(=O)/C=C/CNC(=O)c2cc3c([nH]c2=O)CCN(C(=O)OCC2CC2)C3)cc1F (stereo not drawn) [Example 98, cyclopropylmethyl 3-{[(2E)-3-[(3-fluoro-4-methoxyphenyl)(imino)oxo-λ^6-sulfanyl]prop-2-en-1-yl]carbamoyl}-2-oxo-1,2,5,6,7,8-hexahydro-1,6-naphthyridine-6-carboxylate]
pIC50 [1]: ≥ 5.00
pIC50 [2]: ≥ 7.00
pIC50 [3]: ≥ 6.00

COc1ccc(S(=N)(=O)/C=C/CNC(=O)c2cc3c([nH]c2=O)CCC(OC)C3)cc1F (stereo not drawn) [Example 169, N-[(2E)-3-[(3-fluoro-4-methoxyphenyl)(imino)oxo-λ^6-sulfanyl]prop-2-en-1-yl]-6-methoxy-2-oxo-1,2,5,6,7,8-hexahydroquinoline-3-carboxamide]
pIC50 [1]: ≥ 5.00
pIC50 [2]: ≥ 6.00
pIC50 [3]: ≥ 5.00

O=C(NC/C=C/S(=O)(=O)c1ccccc1Cl)c1cc2c([nH]c1=O)CCCC2 [Example 41, N-[(2E)-3-(2-chlorobenzenesulfonyl)prop-2-en-1-yl]-2-oxo-1,2,5,6,7,8-hexahydroquinoline-3-carboxamide]
pIC50 [1]: ≥ 6.00
pIC50 [2]: ≥ 7.00
pIC50 [3]: ≥ 6.00

CC(C)(C)OC(=O)N1CCc2[nH]c(=O)c(C(=O)NC/C=C/S(=O)(=O)c3ccccc3F)cc2C1 [Example 22, tert-butyl 3-{[(2E)-3-(2-fluorobenzenesulfonyl)prop-2-en-1-yl]carbamoyl}-2-oxo-1,2,5,6,7,8-hexahydro-1,6-naphthyridine-6-carboxylate]
pIC50 [1]: ≥ 6.00
pIC50 [2]: ≥ 7.00
pIC50 [3]: ≥ 6.00

N#Cc1ccc(S(=N)(=O)/C=C/CNC(=O)c2cc3c([nH]c2=O)CCCC3)cc1 (stereo not drawn) [Example 136, N-[(2E)-3-[(4-cyanophenyl)(imino)oxo-λ^6-sulfanyl]prop-2-en-1-yl]-2-oxo-1,2,5,6,7,8-hexahydroquinoline-3-carboxamide]
pIC50 [1]: ≥ 5.00
pIC50 [2]: ≥ 7.00
pIC50 [3]: ≥ 6.00
